Assays:
[1] = system: HCV genotype 1a (strain H77) subgenomic replicon with NS3 resistance mutation R155K in Huh-7 cells; assay: HCV replicon RNA replication assay (NS3 protease variants), genotype 1a R155K; format: cell-based; conditions: Hepatitis C virus, Huh-7, 72 h, read-out: R155K 1a EC50 (nM)
[2] = system: HCV genotype 1b (Con-1) subgenomic replicon with NS3 resistance mutation D168V in Huh-7 cells; assay: HCV replicon RNA replication assay (NS3 protease variants), genotype 1b D168V; format: cell-based; conditions: Hepatitis C virus, Huh-7, 72 h, read-out: D168V 1b EC50 (nM)

Row | Structure (SMILES) | EC50 [1] [nM] | EC50 [2] [nM]
1 | Cc1c(O)ccc2c(O[C@@H]3C[C@H]4C(=O)N[C@]5(C(=O)NS(=O)(=O)C6(C)CC6)C[C@H]5/C=C\CCCCC[C@H](NC(=O)N(C)C)C(=O)N4C3)cc(OC(C)C)nc12 [Compound 2022, (2R,6S,12Z,13aS,14aR,16aS)-6-[(dimethylcarbamoyl)amino]-2-{[7-hydroxy-8-methyl-2-(propan-2-yloxy)quinolin-4-yl]oxy}-N-[(1-methylcyclopropyl)sulfonyl]-5,16-dioxo-1,2,3,6,7,8,9,10,11,13a,14,15,16,16a-tetradecahydrocyclopropa[e]pyrrolo[1,2-a][1,4]diazacyclopentadecine-14a(5H)-carboxamide] | 4.9 | 1.8
2 | COc1ccc2c(O[C@@H]3C[C@H]4C(=O)N[C@]5(C(=O)NS(=O)(=O)C6(C)CC6)C[C@H]5/C=C\CCCCC[C@H](NC(=O)N5CCC5)C(=O)N4C3)cc(OC3CC3)nc2c1C [Compound 2010, (2R,6S,12Z,13aS,14aR,16aS)-6-[(azetidin-1-ylcarbonyl)amino]-2-{[2-(cyclopropyloxy)-7-methoxy-8-methylquinolin-4-yl]oxy}-N-[(1-methylcyclopropyl)sulfonyl]-5,16-dioxo-1,2,3,6,7,8,9,10,11,13a,14,15,16,16a-tetradecahydrocyclopropa[e]pyrrolo[1,2-a][1,4]diazacyclopentadecine-14a(5H)-carboxamide] | 6.4 | 0.66
3 | COc1ccc2c(O[C@@H]3C[C@H]4C(=O)N[C@]5(C(=O)NS(=O)(=O)C6(C)CC6)C[C@H]5/C=C\CCCCC[C@H](NC(=O)N5CCCC5)C(=O)N4C3)cc(OC(C)C)nc2c1C [Compound 2020, (2R,6S,12Z,13aS,14aR,16aS)-2-{[7-methoxy-8-methyl-2-(propan-2-yloxy)quinolin-4-yl]oxy}-N-[(1-methylcyclopropyl)sulfonyl]-5,16-dioxo-6-[(pyrrolidin-1-ylcarbonyl)amino]-1,2,3,6,7,8,9,10,11,13a,14,15,16,16a-tetradecahydrocyclopropa[e]pyrrolo[1,2-a][1,4]diazacyclopentadecine-14a(5H)-carboxamide] | 4 | 1.4
4 | CCOc1cc(O[C@@H]2C[C@H]3C(=O)N[C@]4(C(=O)NS(=O)(=O)C5CC5)C[C@H]4/C=C\CCCCC[C@H](NC(=O)c4ccc(C)s4)C(=O)N3C2)c2ccc(OC)c(Br)c2n1 [Compound 1025, (2R,6S,12Z,13aS,14aR,16aS)-2-[(8-bromo-2-ethoxy-7-methoxyquinolin-4-yl)oxy]-N-(cyclopropylsulfonyl)-6-{[(5-methylthiophen-2-yl)carbonyl]amino}-5,16-dioxo-1,2,3,6,7,8,9,10,11,13a,14,15,16,16a-tetradecahydrocyclopropa[e]pyrrolo[1,2-a][1,4]diazacyclopentadecine-14a(5H)-carboxamide] | 4.1 | 0.32
5 | COc1ccc2c(O[C@@H]3C[C@H]4C(=O)N[C@]5(C(=O)NS(=O)(=O)C6CC6)C[C@H]5/C=C\CCCCC[C@H](NC(=O)c5ccn(C)n5)C(=O)N4C3)cc(OC(C)C)nc2c1C [Compound 1003, (2R,6S,12Z,13aS,14aR,16aS)-N-(cyclopropylsulfonyl)-2-{[7-methoxy-8-methyl-2-(propan-2-yloxy)quinolin-4-yl]oxy}-6-{[(1-methyl-1H-pyrazol-3-yl)carbonyl]amino}-5,16-dioxo-1,2,3,6,7,8,9,10,11,13a,14,15,16,16a-tetradecahydrocyclopropa[e]pyrrolo[1,2-a][1,4]diazacyclopentadecine-14a(5H)-carboxamide] | 4.3 | 0.29
6 | COc1ccc2c(O[C@@H]3C[C@H]4C(=O)N[C@]5(C(=O)NS(=O)(=O)C6CC6)C[C@H]5/C=C\CCCCC[C@H](NC(=O)c5cc(C)n(C)n5)C(=O)N4C3)cc(OC(C)C)nc2c1C [Compound 1034, (2R,6S,12Z,13aS,14aR,16aS)-N-(cyclopropylsulfonyl)-6-{[(1,5-dimethyl-1H-pyrazol-3-yl)carbonyl]amino}-2-{[7-methoxy-8-methyl-2-(propan-2-yloxy)quinolin-4-yl]oxy}-5,16-dioxo-1,2,3,6,7,8,9,10,11,13a,14,15,16,16a-tetradecahydrocyclopropa[e]pyrrolo[1,2-a][1,4]diazacyclopentadecine-14a(5H)-carboxamide] | 7.7 | 0.67

From patent publication US20110294778A1, “HEPATITIS C INHIBITOR COMPOUNDS” (priority 2009, published 2011)
